Laboratory results taken from US10105357B2, “Indication of antibiotic drugs for preparation of cancer inhibition pharmaceutical composition” (LAUNX BIOMEDICAL CO., LTD., priority 2014, dated 2018).
Read-outs that look alike come from different tables or passages of the source.

Legend:
cancer cell lines = assay: Cell viability analysis (WST-1) on cancer cell lines; assay type: cell-based, human; settings: drug 10 μM, 72 hours, WST-1; Table 3
[1] = tested on: HI650 (Lung Adenocarcinoma); assay: Cell viability analysis, lung cancer HI650; assay type: cell-based, human; settings: Homo sapiens, NCI-H1650, 72 h
[2] = tested on: A549 (Lung Adenocarcinoma); assay: Cell viability analysis, lung cancer A549; assay type: cell-based, human; settings: Homo sapiens, A549, 72 h
[3] = tested on: AGS (Gastric Adenocarcinoma); assay: Cell viability analysis, gastric cancer AGS; assay type: cell-based, human; settings: Homo sapiens, 72 h
[4] = tested on: MKN-45 (Gastric Adenocarcinoma); assay: Cell viability analysis, gastric cancer MKN-45; assay type: cell-based, human; settings: Homo sapiens, MKN-45, 72 h
[5] = tested on: Hep3B (hepatocellular carcinoma); assay: Cell viability analysis, hepatic cancer Hep3B; assay type: cell-based, human; settings: Homo sapiens, 72 h; Hep3B; repeated experiment; read-out: The results of antibiotic drug inhibiting cancer cell lines (cell viability analysis), Hep3B
[6] = tested on: LoVo (Colorectal Adenocarcinoma); assay: Cell viability analysis, colon cancer LoVo; assay type: cell-based, human; settings: Homo sapiens, LoVo, 72 h
[7] = tested on: A375 (Amelanotic Melanoma); assay: Cell viability analysis, skin cancer A375; assay type: cell-based, human; settings: Homo sapiens, A-375, 72 h
[8] = tested on: BCC (basal cell carcinoma); assay: Cell viability analysis, skin cancer BCC; assay type: cell-based, human; settings: Homo sapiens, 72 h; BCC; repeated experiment; read-out: The results of antibiotic drug inhibiting cancer cell lines (cell viability analysis), BCC
[9] = tested on: HeLa (Cervix Adenocarcinoma); assay: Cell viability analysis, cervical cancer HeLa; assay type: cell-based, human; settings: Homo sapiens, HeLa, 72 h, HeLa
[10] = tested on: PC3 (p53−) (Prostate Adenocarcinoma); assay: Cell viability analysis, prostate cancer PC3; assay type: cell-based, human; settings: Homo sapiens, 72 h
[11] = tested on: TSGH-8301 (Urinary Bladder Carcinoma); assay: Cell viability analysis, bladder cancer TSGH-8301; assay type: cell-based, human; settings: Homo sapiens, 72 h
T24 = assay: Cell viability analysis, bladder cancer T24; assay type: cell-based, human; settings: Homo sapiens, T-24, 72 h; T24; repeated experiment; read-out: The results of antibiotic drug inhibiting cancer cell lines (cell viability analysis), T24
[12] = tested on: MCF7 (Mammary Gland, Adenocarcinoma); assay: Cell viability analysis, breast cancer MCF7; assay type: cell-based, human; settings: Homo sapiens, MCF7, 72 h
[13] = tested on: MDA-MB-231 (Mammary Gland, Adenocarcinoma); assay: Cell viability analysis, breast cancer MDA-MB-231; assay type: cell-based, human; settings: Homo sapiens, MDA-MB-231, 72 h; MDA-MB231; repeated experiment; read-out: The results of antibiotic drug inhibiting cancer cell lines (cell viability analysis), MDA-MB231
BxPC-3 = assay: Cell viability analysis, pancreatic cancer BxPC-3; assay type: cell-based, human; settings: Homo sapiens, 72 h; BxPC-3; repeated experiment; read-out: The results of antibiotic drug inhibiting cancer cell lines (cell viability analysis), BxPC-3
AsPC-1 = assay: Cell viability analysis, pancreatic cancer AsPC-1; assay type: cell-based, human; settings: Homo sapiens, ASPC1, 72 h; AsPC-1; repeated experiment; read-out: The results of antibiotic drug inhibiting cancer cell lines (cell viability analysis), AsPC-1
NIH: OVCAR-3 = assay: Cell viability analysis, ovarian cancer NIH: OVCAR-3; assay type: cell-based, human; settings: Homo sapiens, 72 h; NIH-OVCAR-3; repeated experiment; read-out: The results of antibiotic drug inhibiting cancer cell lines (cell viability analysis), NIH-OVCAR-3
TOV-21G = assay: Cell viability analysis, ovarian cancer TOV-21G; assay type: cell-based, human; settings: Homo sapiens, TOV21G, 72 h; TOV-21G; repeated experiment; read-out: The results of antibiotic drug inhibiting cancer cell lines (cell viability analysis), TOV-21G
[14] = tested on: SAS (Tongue squamous cell carcinoma); assay: Cell viability analysis, tongue cancer SAS; assay type: cell-based, human; settings: Homo sapiens, 72 h; SAS; repeated experiment; read-out: The results of antibiotic drug inhibiting cancer cell lines (cell viability analysis), SAS
U-2OS = assay: Cell viability analysis, osteosarcoma U-2OS; assay type: cell-based, human; settings: Homo sapiens, 72 h; U2OS; repeated experiment; read-out: The results of antibiotic drug inhibiting cancer cell lines (cell viability analysis), U2OS
[15] = tested on: 786-O (Renal adenocarcinoma); assay: Cell viability analysis, renal cancer 786-O; assay type: cell-based, human; settings: Homo sapiens, 786-0, 72 h; 786-O; repeated experiment; read-out: The results of antibiotic drug inhibiting cancer cell lines (cell viability analysis), 786-O
[16] = tested on: HL-60 (Acute Promyelocytic Leukemia); assay: Cell viability analysis, leukemia HL-60; assay type: cell-based, human; settings: Homo sapiens, HL-60, 72 h, drug 10 μM, 72 hours, WST-1, OD450 nm; read-out: cell viability (survival rate), HL-60
[17] = tested on: HCT116 (p53+) (Colorectal Carcinoma)
[18] = H1650, repeated experiment, read-out: The results of antibiotic drug inhibiting cancer cell lines (cell viability analysis), H1650
[19] = drug 10 μM, 72 hours, WST-1, OD450 nm, read-out: cell viability (survival rate), H1650
[20] = A549, repeated experiment, read-out: The results of antibiotic drug inhibiting cancer cell lines (cell viability analysis), A549
[21] = drug 10 μM, 72 hours, WST-1, OD450 nm, read-out: cell viability (survival rate), A549
[22] = AGS, repeated experiment, read-out: The results of antibiotic drug inhibiting cancer cell lines (cell viability analysis), AGS
[23] = drug 10 μM, 72 hours, WST-1, OD450 nm, read-out: cell viability (survival rate), AGS
[24] = MKN-45, repeated experiment, read-out: The results of antibiotic drug inhibiting cancer cell lines (cell viability analysis), MKN-45
[25] = drug 10 μM, 72 hours, WST-1, OD450 nm, read-out: cell viability (survival rate), MKN-45
[26] = read-out: The results of antibiotic drug inhibiting cancer cell lines (cell viability analysis), LoVo, repeated experiment
[27] = read-out: cell viability (survival rate), LoVo, drug 10 μM, 72 hours, WST-1, OD450 nm
[28] = A375, repeated experiment, read-out: The results of antibiotic drug inhibiting cancer cell lines (cell viability analysis), A375
[29] = drug 10 μM, 72 hours, WST-1, OD450 nm, read-out: cell viability (survival rate), A375
[30] = repeated experiment, read-out: The results of antibiotic drug inhibiting cancer cell lines (cell viability analysis), HeLa
[31] = drug 10 μM, 72 hours, WST-1, OD450 nm, read-out: cell viability (survival rate), HeLa
[32] = PC-3, repeated experiment, read-out: The results of antibiotic drug inhibiting cancer cell lines (cell viability analysis), PC-3
[33] = drug 10 μM, 72 hours, WST-1, OD450 nm, read-out: cell viability (survival rate), PC3
[34] = TSGH-8301, repeated experiment, read-out: The results of antibiotic drug inhibiting cancer cell lines (cell viability analysis), TSGH-8301
[35] = drug 10 μM, 72 hours, WST-1, OD450 nm, read-out: cell viability (survival rate), TSGH
[36] = MCF-7, repeated experiment, read-out: The results of antibiotic drug inhibiting cancer cell lines (cell viability analysis), MCF-7
[37] = drug 10 μM, 72 hours, WST-1, OD450 nm, read-out: cell viability (survival rate), MCF7

Row | SMILES | inhibition effect on different cancer cell lines (cancer cell lines) | viability at 10 µM [1, 18] [%] | viability at 10 µM [1, 19] [%] | viability at 10 µM [2, 20] [%] | viability at 10 µM [2, 21] [%] | viability at 10 µM [3, 22] [%] | viability at 10 µM [3, 23] [%] | viability at 10 µM [4, 24] [%] | viability at 10 µM [4, 25] [%] | viability at 10 µM [5] [%] | viability at 10 µM [6, 26] [%] | viability at 10 µM [6, 27] [%] | viability at 10 µM [7, 28] [%] | viability at 10 µM [7, 29] [%] | viability at 10 µM [8] [%] | viability at 10 µM [9, 30] [%] | viability at 10 µM [9, 31] [%] | viability at 10 µM [10, 32] [%] | viability at 10 µM [10, 33] [%] | viability at 10 µM [11, 34] [%] | other results
1 | NC(=O)N/N=C/c1ccc([N+](=O)[O-])o1 [Nitrofurazone (Nitrofural), Nitrofurazone] | significant inhibition effect | 67.3 | 61.1 | 114 | 44.3 | 88.2 | 28 | 86.8 | 42 | 95.3 | 84.8 | 64.9 | 94.7 | 54.9 | 93 | 51.2 | 55.4 | 98.6 | 53.8 | 83.9 | viability at 10 µM [11, 35]: 32.5%; viability at 10 µM (T24): 87.4%; viability at 10 µM [12, 36]: 107%; viability at 10 µM [12, 37]: 35.3%; viability at 10 µM [13]: 84%; viability at 10 µM (BxPC-3): 71.6%; viability at 10 µM (AsPC-1): 76.7%; viability at 10 µM (NIH: OVCAR-3): 99.5%; viability at 10 µM (TOV-21G): 95.7%; viability at 10 µM [14]: 92.3%; viability at 10 µM (U-2OS): 92.4%; viability at 10 µM [15]: 90%; viability at 10 µM [16]: 85.6%; viability [17]: 110%
2 | CC[C@@H]([C@H](C)O)n1ncn(-c2ccc(N3CCN(c4ccc(OC[C@@H]5CO[C@@](Cn6cncn6)(c6ccc(F)cc6F)C5)cc4)CC3)cc2)c1=O [Posaconazole] | significant inhibition effect | 67.5 | 67 | 18.1 | 42.9 | 65.7 | 42.7 | 92.8 | 52 | 95.2 | 62 | 73.7 | 47.9 | 49.8 | 43.5 | 49.4 | 75.8 | 52.1 | 45.3 | 81.9 | viability at 10 µM [11, 35]: 51.3%; viability at 10 µM (T24): 55.4%; viability at 10 µM [12, 36]: 48%; viability at 10 µM [12, 37]: 63.6%; viability at 10 µM [13]: 60.4%; viability at 10 µM (BxPC-3): 42.6%; viability at 10 µM (AsPC-1): 32.2%; viability at 10 µM (NIH: OVCAR-3): 62.3%; viability at 10 µM (TOV-21G): 37.3%; viability at 10 µM [14]: 26.6%; viability at 10 µM (U-2OS): 38.9%; viability at 10 µM [15]: 18.1%; viability at 10 µM [16]: 71.3%; viability [17]: 51.6%
